Experimental data reported in PubChem BioAssay (NCI).
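Interpolation was linear, between the two tested concentrations surrounding the appropriate level; five concentrations were tested over 48 hours in 96-well plates. GI50 is the concentration that inhibits growth by half. TGI marks complete inhibition of growth.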

Columns and labels:
Assay in all cases: inhibition of tumour cell growth, NCI panel, 48 h
HOP-62 NSCLC = system: HOP-62 NSCLC
SF-539 CNS = system: SF-539 CNS
CAKI-1 renal = system: CAKI-1 renal
RPMI-8226 leukemia = system: RPMI-8226 leukemia
SF-295 CNS = system: SF-295 CNS
SK-MEL-28 melanoma = system: SK-MEL-28 melanoma
DU-145 prostate = system: DU-145 prostate
ACHN renal = system: ACHN renal
SNB-19 CNS = system: SNB-19 CNS
COLO 205 colon = system: COLO 205 colon
PC-3 prostate = system: PC-3 prostate
IGROV1 ovarian = system: IGROV1 ovarian
NCI-H460 lung = system: NCI-H460 lung
HOP-92 NSCLC = system: HOP-92 NSCLC
SK-OV-3 ovarian = system: SK-OV-3 ovarian
SK-MEL-2 melanoma = system: SK-MEL-2 melanoma
BT-549 breast = system: BT-549 breast
U251 CNS = system: U251 CNS
SNB-75 CNS = system: SNB-75 CNS
K-562 leukemia = system: K-562 leukemia
HT29 colon = system: HT29 colon
OVCAR-8 ovarian = system: OVCAR-8 ovarian
RXF 393 renal = system: RXF 393 renal
HCT-116 colon = system: HCT-116 colon
MOLT-4 leukemia = system: MOLT-4 leukemia
SW-620 colon = system: SW-620 colon
HS 578T breast = system: HS 578T breast
NCI/ADR-RES ovarian = system: NCI/ADR-RES ovarian
SR leukemia = system: SR leukemia
MCF7 breast = system: MCF7 breast
TK-10 renal = system: TK-10 renal
UO-31 renal = system: UO-31 renal
CCRF-CEM leukemia = system: CCRF-CEM leukemia
SF-268 CNS = system: SF-268 CNS
HL-60(TB) leukemia = system: HL-60(TB) leukemia
A549 NSCLC = system: A549 NSCLC
UACC-62 melanoma = system: UACC-62 melanoma
OVCAR-3 ovarian = system: OVCAR-3 ovarian
MALME-3M melanoma = system: MALME-3M melanoma
OVCAR-4 ovarian = system: OVCAR-4 ovarian
OVCAR-5 ovarian = system: OVCAR-5 ovarian
MDA-MB-231 breast = system: MDA-MB-231 breast
KM12 colon = system: KM12 colon
NCI-H226 lung = system: NCI-H226 lung
EKVX NSCLC = system: EKVX NSCLC
786-0 renal = system: 786-0 renal
SN12C renal = system: SN12C renal
NCI-H522 lung = system: NCI-H522 lung
MDA-MB-435 = system: MDA-MB-435
UACC-257 melanoma = system: UACC-257 melanoma
M14 melanoma = system: M14 melanoma
HCT-15 colon = system: HCT-15 colon
A498 renal = system: A498 renal
LOX IMVI melanoma = system: LOX IMVI melanoma
SK-MEL-5 melanoma = system: SK-MEL-5 melanoma
NCI-H23 lung = system: NCI-H23 lung
HCC-2998 colon = system: HCC-2998 colon
T-47D breast = system: T-47D breast

O=C1/C(=C/c2ccc(Cl)cc2)COc2ccc(O)cc21
GI50 (HOP-62 NSCLC): 6.31 µM | TGI (HOP-62 NSCLC): 22.5 µM | GI50 (SF-539 CNS): 1.8 µM | TGI (SF-539 CNS): 3.56 µM | GI50 (CAKI-1 renal): 2.02 µM | TGI (CAKI-1 renal): 5.3 µM | GI50 (RPMI-8226 leukemia): 0.302 µM | TGI (RPMI-8226 leukemia): 0.905 µM | GI50 (SF-295 CNS): 14.5 µM | TGI (SF-295 CNS): 30 µM | GI50 (SK-MEL-28 melanoma): 2.07 µM | TGI (SK-MEL-28 melanoma): 4.33 µM | GI50 (DU-145 prostate): 3.69 µM | TGI (DU-145 prostate): 13 µM | GI50 (ACHN renal): 2.39 µM | TGI (ACHN renal): 5.68 µM | GI50 (SNB-19 CNS): 2.16 µM | TGI (SNB-19 CNS): 5.18 µM | GI50 (COLO 205 colon): 1.86 µM | TGI (COLO 205 colon): 4.63 µM | GI50 (PC-3 prostate): 2.15 µM | TGI (PC-3 prostate): 5.14 µM | GI50 (IGROV1 ovarian): 1.67 µM | TGI (IGROV1 ovarian): 3.31 µM | GI50 (NCI-H460 lung): 3.32 µM | TGI (NCI-H460 lung): 11.2 µM | GI50 (HOP-92 NSCLC): 8.84 µM | TGI (HOP-92 NSCLC): 37.6 µM | GI50 (SK-OV-3 ovarian): 14 µM | TGI (SK-OV-3 ovarian): 44.5 µM | GI50 (SK-MEL-2 melanoma): 12.3 µM | TGI (SK-MEL-2 melanoma): 28.5 µM | GI50 (BT-549 breast): 3.34 µM | TGI (BT-549 breast): 11.5 µM | GI50 (U251 CNS): 1.52 µM | TGI (U251 CNS): 2.84 µM | GI50 (SNB-75 CNS): 12.5 µM | TGI (SNB-75 CNS): 26.3 µM | GI50 (K-562 leukemia): 2.55 µM | TGI (K-562 leukemia): 25.8 µM | GI50 (HT29 colon): 2.67 µM | TGI (HT29 colon): 6.61 µM | GI50 (OVCAR-8 ovarian): 3 µM | TGI (OVCAR-8 ovarian): 11 µM | GI50 (RXF 393 renal): 1.83 µM | TGI (RXF 393 renal): 3.45 µM | GI50 (HCT-116 colon): 1.61 µM | TGI (HCT-116 colon): 3.08 µM | GI50 (MOLT-4 leukemia): 1.84 µM | TGI (MOLT-4 leukemia): 8.23 µM | GI50 (SW-620 colon): 1.87 µM | TGI (SW-620 colon): 4.26 µM | GI50 (HS 578T breast): 3.22 µM | TGI (HS 578T breast): 18.1 µM | GI50 (NCI/ADR-RES ovarian): 2.99 µM | TGI (NCI/ADR-RES ovarian): 9.13 µM | GI50 (SR leukemia): 0.663 µM | TGI (SR leukemia): 5.3 µM | GI50 (MCF7 breast): 1.41 µM | TGI (MCF7 breast): 2.96 µM | GI50 (TK-10 renal): 3.33 µM | TGI (TK-10 renal): 13.4 µM | GI50 (UO-31 renal): 1.61 µM | TGI (UO-31 renal): 3.99 µM | GI50 (CCRF-CEM leukemia): 0.291 µM | TGI (CCRF-CEM leukemia): 1.82 µM | GI50 (SF-268 CNS): 3.29 µM | TGI (SF-268 CNS): 16.7 µM | GI50 (HL-60(TB) leukemia): 1.36 µM | TGI (HL-60(TB) leukemia): 4.36 µM | GI50 (A549 NSCLC): 9.28 µM | TGI (A549 NSCLC): 30.7 µM | GI50 (UACC-62 melanoma): 2.23 µM | TGI (UACC-62 melanoma): 5.46 µM | GI50 (OVCAR-3 ovarian): 1.84 µM | TGI (OVCAR-3 ovarian): 3.55 µM | GI50 (MALME-3M melanoma): 2.37 µM | TGI (MALME-3M melanoma): 6.08 µM | GI50 (OVCAR-4 ovarian): 3.83 µM | TGI (OVCAR-4 ovarian): 16.3 µM | GI50 (OVCAR-5 ovarian): 2.44 µM | TGI (OVCAR-5 ovarian): 6.81 µM | GI50 (MDA-MB-231 breast): 2.73 µM | TGI (MDA-MB-231 breast): 8.62 µM | GI50 (KM12 colon): 2.04 µM | TGI (KM12 colon): 4.46 µM | GI50 (NCI-H226 lung): 2.68 µM | TGI (NCI-H226 lung): 7.61 µM | GI50 (EKVX NSCLC): 7.31 µM | TGI (EKVX NSCLC): 20.4 µM | GI50 (786-0 renal): 2.04 µM | TGI (786-0 renal): 4.58 µM | GI50 (SN12C renal): 1.86 µM | TGI (SN12C renal): 4.22 µM | GI50 (NCI-H522 lung): 1.72 µM | TGI (NCI-H522 lung): 3.5 µM | GI50 (MDA-MB-435): 2.77 µM | TGI (MDA-MB-435): 8.2 µM | GI50 (UACC-257 melanoma): 3.16 µM | TGI (UACC-257 melanoma): 13 µM | GI50 (M14 melanoma): 2.33 µM | TGI (M14 melanoma): 6.31 µM | GI50 (HCT-15 colon): 1.84 µM | TGI (HCT-15 colon): 4.04 µM | GI50 (A498 renal): 13.9 µM | TGI (A498 renal): 27.7 µM | GI50 (LOX IMVI melanoma): 1.74 µM | TGI (LOX IMVI melanoma): 3.18 µM | GI50 (SK-MEL-5 melanoma): 2.32 µM | TGI (SK-MEL-5 melanoma): 5.37 µM | GI50 (NCI-H23 lung): 2.21 µM | TGI (NCI-H23 lung): 5.16 µM | GI50 (HCC-2998 colon): 1.82 µM | TGI (HCC-2998 colon): 3.33 µM | GI50 (T-47D breast): 2.22 µM | TGI (T-47D breast): 5.59 µM
